Results published in US7094803B2, “Biologically active raspailamide compounds” (Harbor Branch Oceanographic Institution, Inc., priority 2003, dated 2006).

Tested on: A549 human lung adenocarcinoma
Test: Antiproliferative MTT assay, A549 human lung adenocarcinoma cell line
Type: cell-based
Conditions: A549 adherent cells, 72-h exposure, cytotoxicity
Method: Raspailamide A (I) and B (II) were analyzed as to their effect on the proliferation of A549 human lung adenocarcinoma and P388 murine leukemia cell lines. P388 cells were obtained from Dr. R. Camalier, National Cancer Institute, Bethesda, Md., and A549 cells were obtained from American Type Culture Collection, Rockville, Md.
All cell lines are maintained in Roswell Park Memorial Institute (RPMI) medium 1640 supplemented with 100 U/mL penicillin 100 μg/ml streptomycin, 60 μg/ml L-glutamine, 18 mM HEPES, 0.05 mg/mL gentamycin and 10% fetal bovine serum. Cell lines are cultured in plastic tissue culture flasks and kept in an incubator at 37° C. in humidified air containing 5% CO2. […]
A volume of 75 μl of warm growth media containing 5 mg/ml MTT is added to each well, cultures returned to the incubator, and left undisturbed for 3 hours. To spectrophotometrically quantitate formation of reduced formazan, plates are centrifuged (900×g, 5 minutes), culture fluids removed by aspiration, and 200 μl of acidified isopropanol (2 ml concentrated HCl/iter isopropanol) added per well. The absorbance of the resulting solutions is measured at 570 nm with a plate reader (Spectra II (Tecan Laboratories). […]
The two standard drug controls (indicated above) are included in each assay to monitor the drug sensitivity of each of the cell lines and IC50 values are determined for each drug-cell combination.

Compound	IC50 [ng/mL]
C=C/C=C/C(C)=C/C(C)C1CC(OC)CC(CC2OC(CC(C)/C=C/C(C)=C/CC(CC(O)CNC(=O)C(=C)OC)OC(N)=O)C(C)(O)CC2C)O1 (centres unmarked) [Raspailamide (II), Raspailamide B]	0.018
C=C(OC)C(=O)NCC(O)CC(C/C=C(C)/C=C/C(C)CC1OC(CC2CC(OC)CC(C(C)/C=C(C)/C=C/C=C/C)O2)C(C)CC1(C)O)OC(N)=O (centres unmarked) [Raspailamide A (I), Raspailamide A]	0.046
